Legend:
[1] = tested on: 4T1 cells; experiment: Example 4: triple combination with various RT doses versus bintrafusp alfa+RT, 4T1 mammary tumor model; conditions: RT 8Gy, QDx4
Description: Balb/c mice were inoculated with 4T1 cells (0.5×10^6) in the right thigh muscle (day −7). At day 0, when average tumor volumes reached 150 mm^3, mice were treated (n=10 mice/group) with isotype control (400 μg i.v.; Days 0, 2, 4), Bintrafusp alfa (492 μg/mouse i.v.; Days 0, 2, 4)+RT (8Gy, QDx4), or bintrafusp alfa+Compound A (100 mg/kg p.o., QDx4)+RT (8Gy or 6Gy or 4Gy or 2Gy, QDx4). Tumor volumes were measured twice weekly and presented as mean±SEM. P-values were calculated by two-way ANOVA with Sidack's or Tukey's post-test. P-values comparing median survival were calculated with the Log-rank (Mantel-Cox) test.
Treatment was initiated on day 0 when average tumor volume reached ˜150 mm^3. Mice were sacrificed when tumor volumes reached ˜2500 mm^3. […]
Tumor volumes were calculated with the following formula: tumor volume (mm^3)=tumor length×width×height×0.5236.
To compare the percentage survival between different treatment groups, Kaplan-Meier survival curves were generated. Body weight was measured twice weekly and mice were sacrificed when their tumor volume exceeded 2,000 mm^3.
Statistical analyses were performed using GraphPad Prism Software, version 8.0 or 8.0.1. […] A Kaplan-Meier plot was generated to show survival by treatment group and significance was assessed by log-rank (Mantel-Cox) test.

[2] = tested on: 4T1 cells; experiment: Example 2: dosing schedule of Compound A in the triple combination, 4T1 mammary tumor model; conditions: dual combination without Compound A
Description: BALB/c mice were inoculated intramuscularly (i.m.) with 0.5×10^5 4T1 cells (day −7) and treated (n=10 mice/group) with isotype control (400 μg i.v.; day 0, 2, 4)+vehicle control (0.2 mL, p.o., day 0-17), bintrafusp alfa (492 μg i.v.; day 0, 2, 4)+RT (8 Gy, day 0-3), or bintrafusp alfa+RT+Compound A (100 mg/kg, p.o, days 0-3, days 0-10, or day 0-17). Tumor volumes were measured twice weekly and presented as (A) mean±SEM or (B) individual tumor volumes. P-values were calculated by two-way RM ANOVA with Tukey's post-test. (C) For survival analysis, mice were sacrificed when tumor volumes reached ≈2000 mm^3 and median survival times were calculated.
The effect of different dosing schedules of Compound A on the antitumor activity of the triple combination therapy was evaluated in the 4T1 mammary tumor model. […]
(§1) Tumor volumes were calculated with the following formula: tumor volume (mm^3)=tumor length×width×height×0.5236. Tumor growth inhibition (TGI) was calculated with the following formula: TGI (%)=[1−(Ti−T0)/(Vi−V0)]×100, where Ti is the average tumor volume (mm^3) of a treatment group on a given day, TO is the average tumor volume of the treatment group on the first day of treatment, Vi is the average tumor volume of the vehicle control group on the same day as Ti, and V0 is the average tumor volume of the vehicle control group on the first day of treatment. […]

[3] = tested on: 4T1 cells; experiment: Example 3: triple combination versus dual and monotherapy controls, 4T1 mammary tumor model; conditions: day 18
Description: BALB/c mice were inoculated intramuscularly (i.m.) with 0.5×10^5 4T1 cells (day −7) and treated (n=10 mice/group) with isotype control (400 μg i.v.; day 0, 2, 4)+vehicle control (0.2 mL, p.o., day 0-4), bintrafusp alfa (492 μg i.v.; day 0, 2, 4)+vehicle control, RT (8 Gy, day 0-3)+isotype control+vehicle control, Compound A (100 mg/kg, p.o, days 0-4)+isotype control, bintrafusp alfa+RT, bintrafusp alfa+Compound A, RT+Compound A, or bintrafusp alfa+RT+Compound A. Tumor volumes were measured twice weekly and presented as (A) mean±SEM or (B) individual tumor volumes. P-values were calculated by two-way RM ANOVA with Tukey's post-test. (C) For survival analysis, mice were sacrificed when tumor volumes reached ≈2000 mm^3 and median survival times were calculated. […]
as §1

[4] = tested on: 4T1 cells; experiment: Example 1: bintrafusp alfa, RT and Compound A in the 4T1 mammary tumor model; assay type: in vivo, BALB/c mice; conditions: mice sacrificed at tumor volume ≈2000 mm^3; Compound A 100 mg/kg p.o. day 0-10 where given

With “bintrafusp alfa and RT: dual combination therapy of bintrafusp alfa with radiotherapy (RT)” the median survival [1] was 26 days, the median survival [2] was 26 days and the “antitumor activity of dual combination therapy relative to the respective monotherapies” value [3] was “enhanced antitumor activity”. It also gave a median survival [4] of 26 days.
